Experimental data published in article PMC3829422, “Conformational Plasticity and Ligand Binding of Bacterial Monoacylglycerol Lipase” (The Journal of Biological Chemistry, 2013).
Residue numbers refer to the chain shown, from its start.

How the values were obtained:
Assay in all cases: X-ray crystal structure, […] A
Assay type in all cases: binding
bMGL [1] = target: T1, bMGL (Bacillus sp. H-257, UniProt P82597); conditions: covalent; Ser-97 phosphonate adduct, 4-nitrophenol released; citric acid pH 5.2
T1 construct: cap Asn-120-Thr-164; catalytic triad Ser-97, Asp-196, His-226
T1 sequence (P82597 1-250): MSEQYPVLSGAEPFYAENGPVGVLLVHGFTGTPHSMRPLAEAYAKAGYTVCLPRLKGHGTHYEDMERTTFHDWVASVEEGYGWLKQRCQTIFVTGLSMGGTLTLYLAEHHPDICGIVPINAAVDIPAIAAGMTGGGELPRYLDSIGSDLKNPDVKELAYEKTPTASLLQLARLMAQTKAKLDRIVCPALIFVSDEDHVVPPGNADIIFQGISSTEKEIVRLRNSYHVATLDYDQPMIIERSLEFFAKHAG

bMGL [2] = target: T1, bMGL; conditions: covalent; Ser-97 phosphonate adduct, 4-nitrophenol released; MES/imidazole pH 6.5
bMGL [3] = target: T2, bMGL (Bacillus sp. H-257, UniProt P82597, D196N); conditions: inactive variant; co-crystallised and soaked; HEPES pH 6.9; active site, chain A only; noncovalent
T2 construct: cap Asn-120-Thr-164; catalytic triad Ser-97, Asp-196, His-226
T2 sequence (P82597 1-250 D196N): T1 sequence (P82597 1-250) with D196N

bMGL [4] = target: T1, bMGL; conditions: covalent; Ser-97 phosphonate adduct, 4-nitrophenol released; citric acid pH 5.0

For `CCCCCCCCCCCCCCOP(=O)(CCCN=[N+]=[N-])Oc1ccc([N+](=O)[O-])cc1` (stereo not shown) [C14 ligand], the “X-ray crystal structure, 1.85 A” value (bMGL [1]) was “electron densities for the ligands bound to active site residue Ser-97 were observed”.

In the case of `CCCCCCCCCCCCOP(=O)(CCCN=[N+]=[N-])Oc1ccc([N+](=O)[O-])cc1` (stereo not shown) [C12 ligand, dodecyl 4-nitrophenyl (3-azidopropyl)phosphonate], the “X-ray crystal structure, 1.7 A” value (bMGL [2]) is reported as “both had the C12 ligand covalently bound in the active site”.

With `CCCCCCCCCCCC(=O)OCC(O)CO` (racemic) [1-LG, 1-lauroylglycerol] the “X-ray crystal structure, 2.8 A” value (bMGL [3]) was “we only interpreted the electron density of the bMGL(D196N)-1-LG crystal in chain A as substrate”.

For `CCCCCCCCCCCCCCCCOP(=O)(CCCN=[N+]=[N-])Oc1ccc([N+](=O)[O-])cc1` (stereo not shown) [C16 ligand], the “X-ray crystal structure, 2.2 A” value (bMGL [4]) was “electron densities for the ligands bound to active site residue Ser-97 were observed”.
